Source: patent US20070009575A1, “Novel use of antisecretory factor” (priority 2003, published 2007)

Test system: freeze-injured brain tissue
Type: in vivo, rat
Conditions: 6 days after freezing injury
Description: The rats were anaesthetized by the inhalation of isofluorane, and had their heads shaved. The skin was cut open in the mid sagittal plane on the skull. The calvarium was exposed on the left side between the bregma and the lambda. The periostium was detached from the bone, which then was rinsed. Thereafter, great care was taken to remove blood and any fluid from the calvarium as that may impair the subsequent procedure. A probe made of brass, having a cylindric 4 mm long end piece with a diameter of 3 mm, was cooled by immersion in a standardized manner in liquid nitrogen. The cooled probe was thereafter applied for 40 s on the calvarium in between the lambda and bregma, 4 mm lateral to the sagittal mid line. The probe was then removed and the skin wound sutured. The application of the freezing probe resulted transiently in that the brain tissue underlying the exposure site turn frozen. It ought to be stressed that the skull was not opened and no fractures or other signs of gross damage induced. The animals moved afterwards without any obvious problems, behaved normally and ingested food and drinking fluid close to as those untreated, after having recovered from the anaesthesia. Rats (body weight 180-350 g at the start of the experiments), male and female, were supplied with standard pelleted food and tap water prior to and after the brain injury. At the day of injury, the rat were anaesthetized and prepared as described in experiment 2. The freezing probe was applied once for 40 seconds. After suturing the skin wound in the skull and recovered from the anaesthesia, the rats were allowed to move freely. All rats received twice daily for 5 days, starting on the day of surgery, an intravenous injection of 1-10 μg per kg body weight of a synthetic peptide, being a fragment of AF, comprising amino acids 36-51, i.e. composed of 16 amino acids. It was dissolved in saline and prepared freshly prior to each injection. There was no intravenous injection of the peptide on the day of sacrifice, day 6. […] Six days after the freezing injury, the rats were sacrificed and fixed by perfusion as described. […] There were no bleedings in or on the brain. […] The penumbra appeared to be affected by minor oedema. […] Irregularly distributed swellings and beadings of axons and dendrites were sparse. […] There was, however, a variation in the extent of the neuroprotection exerted by the injected peptide.

[1] = peptide i.v. 1-10 μg per kg twice daily for 5 days
[2] = peptide i.v. twice daily for 5 days, vs rats of experiment 2

fragment of AF, comprising amino acids 36-51: synthetic peptide, being a fragment of AF, comprising amino acids 36-51, i.e. composed of 16 amino acids (VCHSKTRSNPENNVGL; listed as Homo sapiens)
bleedings in or on the brain [1]: no bleedings
oedema in the penumbra [1]: minor oedema
shallow depression of the central parts of the injured area [1]: not marked and in some cases difficult to identify for certain
extent of brain injury on opening the skull bone (peptide i.v. 1-10 μg per kg twice daily for 5 days, vs standard pellets and tap water only): less extensive brain injury
irregularly distributed swellings and beadings of axons and dendrites (peptide i.v. twice daily for 5 days): sparse
proliferation of neural stem and progenitor cells in the SGZ (peptide i.v. twice daily for 5 days, hippocampus): increased proliferation
occurrence of damaged cells (light microscopy of stained sections) [2]: less extensive occurrence of damaged cells
residing extravasation of blood (light microscopy) [2]: rarely any residing extravasation of blood
astrogliosis in the penumbra region (peptide i.v. twice daily for 5 days, vs standard pellets and tap water only): not as extensive and wide-spread
